Laboratory results: article PMC12219075 (Scientific Reports, 2025)

Target: Proto-oncogene tyrosine-protein kinase Src (SRC) (Homo sapiens, UniProt P12931)
Assay: mobility shift kinase assay
Type: biochemical

Proto-oncogene tyrosine-protein kinase Src (SRC), sequence (P12931 2-536): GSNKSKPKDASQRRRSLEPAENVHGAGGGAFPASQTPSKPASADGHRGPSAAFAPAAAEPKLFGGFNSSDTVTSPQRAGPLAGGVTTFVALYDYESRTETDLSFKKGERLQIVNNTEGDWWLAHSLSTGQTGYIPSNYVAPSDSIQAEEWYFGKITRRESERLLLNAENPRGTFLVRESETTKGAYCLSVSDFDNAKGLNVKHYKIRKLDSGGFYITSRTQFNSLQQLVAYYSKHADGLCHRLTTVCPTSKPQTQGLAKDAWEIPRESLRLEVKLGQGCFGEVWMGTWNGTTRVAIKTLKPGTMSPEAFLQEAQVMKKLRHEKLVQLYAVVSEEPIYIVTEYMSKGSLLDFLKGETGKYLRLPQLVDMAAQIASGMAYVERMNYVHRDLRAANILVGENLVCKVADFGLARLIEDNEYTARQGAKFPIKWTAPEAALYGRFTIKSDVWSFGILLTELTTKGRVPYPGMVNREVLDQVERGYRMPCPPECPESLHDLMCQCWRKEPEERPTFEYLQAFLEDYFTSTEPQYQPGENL

IC50 [µM]	SMILES
29.9	CC1(C)CC[C@]2(C(=O)O)CC[C@]3(C)C(=CC[C@@H]4[C@@]5(C)CC[C@H](O)C(C)(C)[C@@H]5CC[C@]43C)[C@@H]2C1 [compound 116, oleanolic acid]
22.5	C[C@@H]1CC[C@]2(C(=O)O)CC[C@]3(C)C(=CC[C@@H]4[C@@]5(C)C[C@@H](O)[C@@H](O)C(C)(C)[C@@H]5CC[C@]43C)[C@@H]2[C@]1(C)O [compound 99, 2α,3α,19α-trihydroxyurs-12-en-28-oic acid]
26.9	CC1(C)CC[C@]2(C(=O)O)CC[C@]3(C)C(=CC[C@@H]4[C@@]5(C)C[C@@H](O)[C@H](O)C(C)(C)[C@@H]5CC[C@]43C)[C@@H]2C1 [compound 102, crataegolic acid]
